In patent US5668182A, “Method of calming or sedating an animal with a hydroxy benzaldehyde compound” (priority 1996, dated 1997):
Read-outs that look alike come from different tables or passages of the source.

Columns and labels:
Assay type in all cases: in vivo
[1] = test system: mice; assay: Inverted screen test in mice (Example 4); conditions: for ED50: Mus musculus, ip
Description: An inverted screen test was performed on mice to investigate the effect of vanillin and vanillin analogs on muscular function. After i.p. injection of vanillin or vehicle, each mouse was placed on a wire screen (12.8 cm×12.8 cm with a 6 mm mesh size) and the screen was inverted. A positive effect was found if the drug caused the mouse to fall from the screen within 60 seconds. A negative effect was found if the mouse had the ability to climb from the underside of the screen to the top side of the screen within the 60 second time period. Hanging from the underside of the screen without falling but without climbing to the topside at 60 seconds is recorded as a one-half positive effect per the convention of Coughenour, L. L.; Mclean, J. R.; Parker, R. B., "A New Device for the Rapid Measurement of Impaired Motor Function in Mice," Pharmacol. Biochem. Behav., 6: 351-353; 1977. The test was performed at 2, 5, 10, and 30 minutes following administration of vanillin or vehicle. At each of those times, an ED-50 (and 95% confidence limits) was determined for vanillin. Six mice were used in each experimental group.
Several analogs of vanillin were also examined in this test. The chemical structures and chemical names for these compounds are described hereinabove.
The testing of these compounds was limited both by supply of compound and by solubility. Testing was performed at 2, 5, 10, 20 minutes after administration of drug or vehicle. The vehicles used to solubilize the analogs were as follows: 10% ethanol for TBJ1, TBJ2, and TBJ3; 3% ammonium hydroxide solution in saline for FSA (pH=9); 6.7% ammonium hydroxide in saline for TB17 (pH=9.3); and 20% ethanol, 1% ammonium hydroxide solution in saline for TB34 (pH=10.0). ED-50s of compounds (and 95% confidence limits) were calculated in cases where the data permitted the calculation.

[2] = test system: mice; assay: Metrazol-induced seizures in mice (Example 5); conditions: for Death: Metrazol 90 mg/kg i.p. (vehicle 0/6); for Tonic Convulsion: Metrazol 90 mg/kg i.p. (vehicle 6/6)
Description: Mice were treated with vanillin (100, 200, or 300 mg/kg) or saline (0.9% NaCl) by i.p. injection. The treatment was followed either by injection of pentylenetetrazol ("Metrazol"), 80 or 90 mg/kg by i.p. injection (given 5 minutes after vanillin) or by exposure to a 1-second pulse of shock through electrodes clamped to the ears (5 minutes after vanillin). The end-points for both tests were the occurrence of a tonic (extensor) convulsion and/or death. Six mice were used per group for the Metrazol-induced seizure test, and five mice were used per group for the electroshock-induced seizure test.

[3] = test system: rats; assay: Behavioral depression in rats after i.v. infusion (Example 1); conditions: for Grip Absent (number of rats): first figure of cell; for Grip Weak (number of rats): second figure of cell
Description: To assess behavioral depression in rats as induced by vanillin, male and female rats, five of each gender at each dose, were given doses of vanillin of 50, 100 or 200 mg/kg, respectively, or a control vehicle (0.9% sodium chloride in water) by intravenous (i.v.) infusion. Therefore, there were four groups of rats with ten rats per group tested at each dosage. The solution was infused into a tail vein through a butterfly cannula, with the infusion being performed at a constant rate over a 5-minute period using a Harvard infusion pump.
The evaluations were performed on days 1, 3, 5 and 9 of vanillin administration.

[4] = 50 mg/kg i.v., day 1, <2 min, 10 rats per group
[5] = highest dose (200 mg/kg i.v.), day 1
[6] = highest dose (200 mg/kg i.v.), days 5 and 9

COc1cc(C=O)ccc1O [vanillin, 4-hydroxy-3-methoxybenzaldehyde]
ED50 ([1]; 2 min, 2 min post-treatment, read-out: ED-50 (95% confidence limits)): 112 mg/kg | ED50 ([1]; 5 min, 5 min post-treatment, read-out: ED-50 (95% confidence limits)): 104 mg/kg | ED50 ([1]; 10 min, 10 min post-treatment, read-out: ED-50 (95% confidence limits)): 112 mg/kg | ED50 ([1]; 10 min, first 10 minutes after injection, read-out: ED-50): ~100 mg/kg | ED50 ([1]; 0.5 h, 30 min post-treatment, read-out: ED-50 (95% confidence limits)): 748 mg/kg | change of potency with time ([1]; between 10 and 30 minutes after injection): declined precipitously | protection versus Metrazol-induced seizures ([2]; 300 mg/kg): some protection | anticonvulsant activity ([2]; particularly at higher doses, data of Table 5): some mild anticonvulsant activity | Death ([2]; vanillin 200 mg/kg i.p.): 2/6 | Tonic Convulsion ([2]; vanillin 200 mg/kg i.p.): 5/6 | Death ([2]; vanillin 300 mg/kg i.p.): 0/6 | Tonic Convulsion ([2]; vanillin 300 mg/kg i.p.): 1/6 | Ambulation Absent (number of rats) ([3]; 50 mg/kg i.v., day 1, 10 min): 0 | Sign of depression: Score > 0 (number of rats) ([3]; 50 mg/kg i.v., day 1, 10 min, 10 rats per group): 0 | Grip Absent (number of rats) ([3]; 50 mg/kg i.v., day 1, 10 min): 0 | Grip Weak (number of rats) ([3]; 50 mg/kg i.v., day 1, 10 min): 0 | Ambulation Absent (number of rats) ([3]; 50 mg/kg i.v., day 1, 20 min): 0 | Sign of depression: Score > 0 (number of rats) ([3]; 50 mg/kg i.v., day 1, 20 min, 10 rats per group): 0 | Grip Absent (number of rats) ([3]; 50 mg/kg i.v., day 1, 20 min): 0 | Grip Weak (number of rats) ([3]; 50 mg/kg i.v., day 1, 20 min): 0 | Ambulation Absent (number of rats) ([3]; 50 mg/kg i.v., day 1, 30 min): 0 | Sign of depression: Score > 0 (number of rats) ([3]; 50 mg/kg i.v., day 1, 30 min, 10 rats per group): 0 | Grip Absent (number of rats) ([3]; 50 mg/kg i.v., day 1, 30 min): 0 | Grip Weak (number of rats) ([3]; 50 mg/kg i.v., day 1, 30 min): 0 | Ambulation Absent (number of rats) ([3]; 50 mg/kg i.v., day 1, 45 min): 0 | Sign of depression: Score > 0 (number of rats) ([3]; 50 mg/kg i.v., day 1, 45 min, 10 rats per group): 0 | Grip Absent (number of rats) ([3]; 50 mg/kg i.v., day 1, 45 min): 0 | Grip Weak (number of rats) ([3]; 50 mg/kg i.v., day 1, 45 min): 0 | Ambulation Absent (number of rats) [3, 4]: 0 | Grip Absent (number of rats) [3, 4]: 0 | Grip Weak (number of rats) [3, 4]: 1 | Sign of depression: Score > 0 (number of rats) ([3]; 50 mg/kg i.v., day 1, <2 min after treatment, 10 rats per group): 0 | Ambulation Absent (number of rats) ([3]; 100 mg/kg i.v., day 1, 10 min): 0 | Sign of depression: Score > 0 (number of rats) ([3]; 100 mg/kg i.v., day 1, 10 min, 10 rats per group): 0 | Grip Absent (number of rats) ([3]; 100 mg/kg i.v., day 1, 10 min): 0 | Grip Weak (number of rats) ([3]; 100 mg/kg i.v., day 1, 10 min): 2 | Ambulation Absent (number of rats) ([3]; 100 mg/kg i.v., day 1, 20 min): 0 | Sign of depression: Score > 0 (number of rats) ([3]; 100 mg/kg i.v., day 1, 20 min, 10 rats per group): 0 | Grip Absent (number of rats) ([3]; 100 mg/kg i.v., day 1, 20 min): 0 | Grip Weak (number of rats) ([3]; 100 mg/kg i.v., day 1, 20 min): 0 | Ambulation Absent (number of rats) ([3]; 100 mg/kg i.v., day 1, 30 min): 0 | Sign of depression: Score > 0 (number of rats) ([3]; 100 mg/kg i.v., day 1, 30 min, 10 rats per group): 0 | Grip Absent (number of rats) ([3]; 100 mg/kg i.v., day 1, 30 min): 0 | Grip Weak (number of rats) ([3]; 100 mg/kg i.v., day 1, 30 min): 0 | Ambulation Absent (number of rats) ([3]; 100 mg/kg i.v., day 1, 45 min): 0 | Sign of depression: Score > 0 (number of rats) ([3]; 100 mg/kg i.v., day 1, 45 min, 10 rats per group): 0 | Grip Absent (number of rats) ([3]; 100 mg/kg i.v., day 1, 45 min): 0 | Grip Weak (number of rats) ([3]; 100 mg/kg i.v., day 1, 45 min): 0 | Ambulation Absent (number of rats) ([3]; 100 mg/kg i.v., day 1, <2 min): 0 | Grip Absent (number of rats) ([3]; 100 mg/kg i.v., day 1, <2 min): 0 | Grip Weak (number of rats) ([3]; 100 mg/kg i.v., day 1, <2 min): 6 | Sign of depression: Score > 0 (number of rats) ([3]; 100 mg/kg i.v., day 1, <2 min after treatment, 10 rats per group): 0 | Ambulation Absent (number of rats) ([3]; 200 mg/kg i.v., day 1, 10 min): 0 | Sign of depression: Score > 0 (number of rats) ([3]; 200 mg/kg i.v., day 1, 10 min, 10 rats per group): 0 | Grip Absent (number of rats) ([3]; 200 mg/kg i.v., day 1, 10 min): 0 | Grip Weak (number of rats) ([3]; 200 mg/kg i.v., day 1, 10 min): 8 | Ambulation Absent (number of rats) ([3]; 200 mg/kg i.v., day 1, 20 min): 0 | Sign of depression: Score > 0 (number of rats) ([3]; 200 mg/kg i.v., day 1, 20 min, 10 rats per group): 0 | Grip Absent (number of rats) ([3]; 200 mg/kg i.v., day 1, 20 min): 0 | Grip Weak (number of rats) ([3]; 200 mg/kg i.v., day 1, 20 min): 8 | Ambulation Absent (number of rats) ([3]; 200 mg/kg i.v., day 1, 30 min): 0 | Sign of depression: Score > 0 (number of rats) ([3]; 200 mg/kg i.v., day 1, 30 min, 10 rats per group): 0 | Grip Absent (number of rats) ([3]; 200 mg/kg i.v., day 1, 30 min): 0 | Grip Weak (number of rats) ([3]; 200 mg/kg i.v., day 1, 30 min): 5 | Ambulation Absent (number of rats) ([3]; 200 mg/kg i.v., day 1, 45 min): 0 | Sign of depression: Score > 0 (number of rats) ([3]; 200 mg/kg i.v., day 1, 45 min, 10 rats per group): 0 | Grip Absent (number of rats) ([3]; 200 mg/kg i.v., day 1, 45 min): 0 | Grip Weak (number of rats) ([3]; 200 mg/kg i.v., day 1, 45 min): 2 | Ambulation Absent (number of rats) ([3]; 200 mg/kg i.v., day 1, <2 min): 5 | Grip Absent (number of rats) ([3]; 200 mg/kg i.v., day 1, <2 min): 10 | Grip Weak (number of rats) ([3]; 200 mg/kg i.v., day 1, <2 min): 10 | Sign of depression: Score > 0 (number of rats) ([3]; 200 mg/kg i.v., day 1, <2 min after treatment, 10 rats per group): 3 | rats rated with depression scores above zero ([3]; days 5 and 9): no rats | time for diminished grip to return to normal ([3]; days 5 and 9, almost all rats with diminished grip): ≤ 20 min | tolerance to depressant effects ([3]; days 5 and 9, i.v.): some suggestion of tolerance | effect on grip strength [3, 5]: obliterated | persistence of slight effect on grip strength [3, 5]: ≥ 45 min | rats displaying absence of grip [3, 6]: 4 of 10 | rats exhibiting no muscular or motor impairment at all [3, 6]: 1 | time for return of ability to walk ([3]; i.v., highest dose 200 mg/kg, day 1, some of the rats): less than 10 minutes | persistence of eye closure ([3]; intermediate and high dose groups i.v., several rats): up to 45 minutes | time to appearance of eye closure ([3]; intermediate and high dose groups i.v., several rats, typically): ≤ 10 min | effect on grip strength ([3]; intermediate dose (100 mg/kg i.v.), day 1): weakened in most rats | effects on righting reflex and on motor coordination ([3]; vanillin given alone, rats): mild and transient
